Columns and labels:
BT474 cells = experiment: Mammosphere formation in unmodified HER2+ BT474 cells; assay type: cell-based
Description: Primary Mammospheres: Adherent cells were washed with PBS and dissociated enzymatically in 0.25% trypsin-EDTA (Invitrogen Corporation, Carlsbad, Calif.). Cells were sieved through a 40-μm sieve (BD FALCON, BD Biosciences, Bedford, Mass.) and analyzed microscopically for single-cellularity. Single cells were plated in ultra-low attachment plates (Corning, Inc., Corning, N.Y.) and cultured in a humid incubator. […] Mammosphere Forming Efficiency (MFE) % was calculated by the number of mammospheres per well/number of cells seeded per well.
Secondary Mammospheres: Primary mammospheres were collected by centrifugation (5 min, 1000 rpm), and dissociated enzymatically in 0.25% typsin-EDTA. Cells were sieved through a 40-μm tip strainer (Bel-Art SP Scienceware, South Wayne, N.J.) and analyzed microscopically for single-cellularity. […] Mammosphere Forming Efficiency (MFE) % was calculated by the number of mammospheres per well/number of cells seeded per well.
The results were also validated in unmodified ER+/PR+BT474 cells. […] In this “high-kinase” context, PRs are readily phosphorylated on Ser294.

[1] = tested on: SLC37A2 expression in BT474 cells; experiment: SLC37A2 mRNA expression by RT-qPCR in BT474 cells; assay type: cell-based; conditions: unmodified BT474 cells, progestin plus onapristone
Description: For reverse transcription quantitative polymerase chain reaction (RT-qPCR) assays, 5×10^5 cells/well were plated in six-well dishes, serum starved in modified IMEM for one day before treatment. RNA was extracted using TriPure reagent (Roche, Basel, Switzerland) and cDNA was created using the qScript cDNA SuperMix kit (Quanta Biosciences, Beverly, Mass.). Relative expression levels were determined by qPCR assays performed on a Roche Light-Cycler II using SYBR green master-mix (Roche, Basel, Switzerland). Target gene quantification levels were normalized to the expression of standard housekeeper genes: TBP, ACTB, 18S, and/or GAPDH.
PR cooperation with one or more RUNX factors may be a mechanism for promoter selection by uniquely modified receptors. The family of RUNX transcription factors (RUNX1, 2, and 3) has complex roles in development and tumor formation with both tumor suppressive and tumor-promoting activities. […] From the GSEA results, SLC37A2, a candidate PR target gene containing multiple RUNX2 binding motifs immediately upstream and within the gene, was identified (FIG. 7A). SLC37A2 is a glucose-6-phosphate transporter expressed in monocytes as well as breast and cervical tissues. […] PR/progestin-dependent regulation of SLC37A2 mRNA expression in multiple cell line models was thus measured. […]

[2] = tested on: PR Ser294 phosphorylation; experiment: Breast tumor explants, phospho-Ser294 PR IHC; assay type: cell-based, human; conditions: progesterone 10 nM, 2 hours, IHC, n=6
Description: De-identified breast tumor samples were collected after surgery and immediately processed for tissue explant maintenance on sponges in cell culture medium, as previously described (Ravindranathan et al. Nature Communications 2013, 4:1923). Samples were derived from six patients pathologically diagnosed with invasive ductal carcinoma (IDC) and scored positive for ER (94-100%) and PR (1-100%), and negative for HER2 expression. […] In additional experiments, six explants were similarly treated with estrogen or progesterone (2 hours) but in combination with 1 uM U0126 (to inhibit ERKs 1/2) and phospho-Ser294 PR levels were measured by IHC.
ER+ luminal tumors were maintained as explants as above and instead treated with either vehicle or progesterone (10 nM) for 2 hours in the presence or absence of the MEK1/2 inhibitor U0126 (1 nM) prior to IHC staining using specific antibodies for total and phospho-Ser294 PR as well as ER-alpha and phospho-ERK1/2 (n=6; see Methods).

ERK1/2 = experiment: Breast tumor explants, phospho-ERK1/2 IHC; assay type: cell-based, human; conditions: progesterone 10 nM, 2 hours
[3] = tested on: human breast tumor tissue (tumor explants); experiment: Breast tumor explants cultured ex vivo, Ki-67 IHC (proliferation); assay type: cell-based; conditions: ER+/PR+ tumor explants, 48 hours; progesterone 10 nM; estrogen 1 nM and 10 nM; n=6
Excerpt: De-identified breast tumor samples were collected after surgery and immediately processed for tissue explant maintenance on sponges in cell culture medium, as previously described (Ravindranathan et al. Nature Communications 2013, 4:1923). Samples were derived from six patients pathologically diagnosed with invasive ductal carcinoma (IDC) and scored positive for ER (94-100%) and PR (1-100%), and negative for HER2 expression. Tissue explants were starved in media containing hormone-stripped FBS for 24 hours, and then treated for 48 hours with (1) vehicle, (2) 1 nM estradiol, (3) 10 nM estradiol, (4) 1 nM progesterone, (5) 10 nM progesterone prior to processing for quantitation of Ki-67 levels by IHC. Across treatment conditions, statistical significance was tested for using one-way analysis-of-variance (ANOVA) followed by pairwise testing of all treatment groups using the TukeyHSD post-test with R statistical software (R Core Team: R: A language and environment for statistical computing. R Foundation for Statistical Computing, Vienna, Austria 2015, [available on the world wide web at r-project.org/]). In additional experiments, six explants were similarly treated with estrogen or progesterone (2 hours) but in combination with 1 uM U0126 (to inhibit ERKs 1/2) and phospho-Ser294 PR levels were measured by IHC. […]

Row | SMILES | effect on basal and progestin-stimulated primary mammosphere formation (BT474 cells; BT474, onapristone 100 or 1000 nM without or with R5020 10 nM) | secondary mammosphere formation (BT474 cells; BT474, onapristone-containing media) | effect on progestin-stimulated SLC37A2 mRNA expression [1] | PR Ser294 phosphorylation in tumor explants [2] | activation of ERK1/2 (phospho-ERK1/2) in tumor explants (ERK1/2) | percentage of Ki67-positive cells compared to vehicle treatment [3]
1 | CN(C)c1ccc([C@H]2C[C@]3(C)[C@@H](CC[C@]3(O)CCCO)[C@@H]3CCC4=CC(=O)CCC4=C32)cc1 [onapristone] | effectively reduced both basal and progestin-stimulated primary mammosphere formation | failed to form | effectively blocked |  |  | 
2 | CC(=O)[C@H]1CC[C@H]2[C@@H]3CCC4=CC(=O)CC[C@]4(C)[C@H]3CC[C@]12C [progesterone] |  |  |  | induced robust PR Ser294 phosphorylation | accompanied by activation of ERK1/2 | significantly higher percentage of Ki67-positive cells
